Test results published in ChEMBL document CHEMBL1909592, “Targeting the prostaglandin F2α receptor for preventing preterm labor with azapeptide tocolytics” (J Med Chem, 2011).
Active and inactive are the calls of the source. The calls are words filed in the database; no cut-off is given here. Square brackets hold non-standard residues; d marks the D form. Peptide text beside a SMILES is read from it. * marks the point of attachment. dCit = NC(=O)NCCC[C@@H](N)C(=O)O; 3Pal = N[C@@H](Cc1cccnc1)C(=O)O; β3hF = N[C@H](CC(=O)O)Cc1ccccc1; PhAc = O=C(Cc1ccccc1)*; azaGly = NNC(=O)O

What was measured:
[1] = target: Prostaglandin F2-alpha receptor (Mus musculus) (UniProt P43117); test: Antagonist activity at FP receptor in postpartum mouse myometrial strip assessed as inhibition of PGF-2alpha-induced uterine contractions; assay type: functional
Mus musculus [2] = test: Inhibition of LPS-induced uterine contractions in pregnant CD-1 mouse assessed as time delay in preterm labor at 0.1 mg, ip administered as bolus dose immediately followed by 10 mg, sc; assay type: functional
[3] = target: Prostaglandin F2-alpha receptor (Homo sapiens) (UniProt P43088); test: Antagonist activity at human FP receptor expressed in HEK293 cells assessed as inhibition of PGF-2alpha-mediated cell ruffling at 1 uM after 30 mins by immunofluorescence assay (reference value: 65.7 +/- 1.6 %); assay type: functional, cell-based
[4] = target: Prostaglandin F2-alpha receptor (Homo sapiens) (UniProt P43088); test: Antagonist activity at human FP receptor expressed in HEK293 cells assessed as potentiation of PGF-2alpha-induced Galphaq-mediated PKC/ERK1/2 activation at 1 uM after 30 mins by Western blot analysis; assay type: functional, cell-based
Mus musculus [5] = test: Inhibition of PGF-2alpha-induced uterine contractions in pregnant CD-1 mouse assessed as time delay in preterm labor at 0.1 mg, ip administered as bolus dose immediately followed by 10 mg, sc; assay type: functional
[6] = target: Prostaglandin F2-alpha receptor (Homo sapiens) (UniProt P43088); test: Antagonist activity at human FP receptor expressed in HEK293 cells assessed as ERK1/2 activation at 1 uM after 30 mins by Western blot analysis; assay type: functional, cell-based
[7] = target: Prostaglandin F2-alpha receptor (Homo sapiens) (UniProt P43088); test: Antagonist activity at human FP receptor expressed in HEK293 cells assessed as inhibition of cell ruffling at 1 uM after 30 mins by immunofluorescence assay; assay type: functional, cell-based
[8] = Antagonist activity at FP receptor in pig retina assessed as inhibition of PGF-2alpha induced microvascular contraction; assay type: functional, tissue-based, Sus scrofa
[9] = Antagonist activity at FP receptor in pig retina assessed as inhibition of PGF-2alpha induced microvascular contraction at 100 uM; assay type: functional; settings: Sus scrofa
[10] = target: Prostaglandin F2-alpha receptor (Bos taurus, UniProt P37289); test: Antagonist activity at FP receptor in bovine myometrial strip assessed as inhibition of PGF-2alpha-induced contractions; assay type: functional
[11] = target: Prostaglandin F2-alpha receptor (Mus musculus) (UniProt P43117); settings: 100 uM
Description: Antagonist activity at FP receptor in mouse myometrial strip assessed as inhibition of PGF-2alpha-induced contractions at 100 uM

[12] = target: Prostaglandin F2-alpha receptor (Ovis aries) (UniProt Q28905); settings: 100 uM
Description: Antagonist activity at FP receptor in sheep myometrial strip assessed as inhibition of PGF-2alpha-induced contractions at 100 uM

[13] = target: Prostaglandin F2-alpha receptor (Bos taurus) (UniProt P37289); settings: 100 uM
Description: Antagonist activity at FP receptor in bovine myometrial strip assessed as inhibition of PGF-2alpha-induced contractions at 100 uM

[14] = target: Prostaglandin F2-alpha receptor (Mus musculus, UniProt P43117); test: Antagonist activity at FP receptor in mouse myometrial strip assessed as inhibition of PGF-2alpha-induced contractions; assay type: functional
Mus musculus [15] = species on record: Mus musculus; test: Inhibition of PGF-2alpha-induced uterine contractions in pregnant mouse assessed as time delay in preterm labor at 0.8 mg/day; assay type: functional
[16] = target: Prostaglandin F2-alpha receptor (Ovis aries, UniProt Q28905); test: Antagonist activity at FP receptor in sheep myometrial strip assessed as inhibition of PGF-2alpha-induced contractions; assay type: functional
Chain of Prostaglandin F2-alpha receptor (Ovis aries, UniProt Q28905) (Q28905 whole entry): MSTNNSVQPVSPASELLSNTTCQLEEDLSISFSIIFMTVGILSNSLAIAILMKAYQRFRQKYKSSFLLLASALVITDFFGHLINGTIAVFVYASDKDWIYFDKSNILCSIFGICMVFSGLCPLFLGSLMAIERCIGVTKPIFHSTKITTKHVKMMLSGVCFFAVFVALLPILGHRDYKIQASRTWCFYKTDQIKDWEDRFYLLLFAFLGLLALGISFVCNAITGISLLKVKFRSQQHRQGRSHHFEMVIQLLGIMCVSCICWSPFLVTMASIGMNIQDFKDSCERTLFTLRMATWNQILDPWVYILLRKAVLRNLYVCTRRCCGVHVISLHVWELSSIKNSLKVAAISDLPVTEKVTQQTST

Chain of Prostaglandin F2-alpha receptor (Mus musculus) (P43117 whole entry): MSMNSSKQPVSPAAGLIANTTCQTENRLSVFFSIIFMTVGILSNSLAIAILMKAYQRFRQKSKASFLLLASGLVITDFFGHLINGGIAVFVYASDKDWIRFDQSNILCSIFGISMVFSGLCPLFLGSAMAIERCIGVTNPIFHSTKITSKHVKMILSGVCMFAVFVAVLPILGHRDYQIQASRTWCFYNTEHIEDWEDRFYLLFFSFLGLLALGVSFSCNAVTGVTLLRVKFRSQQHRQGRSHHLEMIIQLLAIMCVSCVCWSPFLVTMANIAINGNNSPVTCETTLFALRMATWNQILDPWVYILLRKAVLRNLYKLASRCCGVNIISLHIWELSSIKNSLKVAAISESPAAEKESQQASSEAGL
Chain of Prostaglandin F2-alpha receptor (Homo sapiens) (P43088 whole entry): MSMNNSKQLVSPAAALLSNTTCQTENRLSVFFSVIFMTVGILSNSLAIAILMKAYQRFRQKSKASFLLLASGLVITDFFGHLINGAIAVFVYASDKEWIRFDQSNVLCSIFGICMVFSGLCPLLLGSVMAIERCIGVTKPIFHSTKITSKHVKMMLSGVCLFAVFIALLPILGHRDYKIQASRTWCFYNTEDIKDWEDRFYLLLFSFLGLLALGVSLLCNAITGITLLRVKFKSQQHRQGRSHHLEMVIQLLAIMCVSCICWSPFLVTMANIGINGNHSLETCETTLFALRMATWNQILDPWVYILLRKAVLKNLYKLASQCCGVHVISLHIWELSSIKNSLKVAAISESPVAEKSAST
Chain of Prostaglandin F2-alpha receptor (Ovis aries) (Q28905 whole entry): as the sequence (Q28905 whole entry) above
Chain of Prostaglandin F2-alpha receptor (Mus musculus, UniProt P43117) (P43117 whole entry): as the sequence (P43117 whole entry) above
Chain of Prostaglandin F2-alpha receptor (Bos taurus, UniProt P37289) (P37289 whole entry): as the sequence (Q28905 whole entry) above, with N5S, V7I, A13E, Q192E, N340D counted along it
Chain of Prostaglandin F2-alpha receptor (Bos taurus) (P37289 whole entry): as the sequence (Q28905 whole entry) above, with N5S, V7I, A13E, Q192E, N340D counted along it

**Q.** Which inhibition [1] does the source give for `NC(=O)NCCC[C@@H](NC(=O)[C@H]1CC[C@H]2CC[C@@H](NC(=O)Cc3ccccc3)C(=O)N21)C(=O)N[C@@H](CC(=O)O)Cc1ccccc1` here?
**A.** Its inhibition is “inactive”.

**Q.** For `O=C(O)C[C@H](Cc1ccccc1)NC(=O)[C@H](Cc1cccnc1)NC(=O)[C@@H]1CC[C@@H]2CC[C@H](NC(=O)Cc3ccccc3)C(=O)N21`, which Time (Mus musculus [2]) is on record?
**A.** The Time was 28 h.

**Q.** And the inhibition [1]?
**A.** Its inhibition is “Active”.

**Q.** And the inhibition [3]?
**A.** Its inhibition is 40.3%.

**Q.** And the Activity [4]?
**A.** Its Activity is “Active”.

**Q.** And the Time (Mus musculus [5])?
**A.** Its Time is 42 h.

**Q.** With `O=C(O)C[C@H](Cc1ccccc1)NC(=O)[C@H](Cc1cccnc1)NC(=O)[C@@H]1CCC[C@@H]2CC[C@H](NC(=O)Cc3ccccc3)C(=O)N21` as the compound, how does the inhibition [1] read?
**A.** The inhibition was “inactive”.

**Q.** Which inhibition [1] does the source give for `C=CCN(NC(=O)Cc1ccccc1)C(=O)N1CCC[C@H]1C(=O)N[C@@H](Cc1cccnc1)C(=O)N[C@H](CC(=O)O)Cc1ccccc1` here?
**A.** Its inhibition is “inactive”.

**Q.** Which inhibition [1] does the source give for `O=C(O)C[C@H](Cc1ccccc1)NC(=O)[C@H](Cc1cccnc1)NC(=O)[C@@H]1CCC[C@@H]2C[C@H](NC(=O)Cc3ccccc3)C(=O)N21` here?
**A.** The inhibition was “inactive”.

**Q.** For `O=C(O)C[C@H](Cc1ccccc1)NC(=O)[C@H](Cc1cccnc1)NC(=O)[C@@H]1CCCN1C(=O)NNC(=O)Cc1ccccc1` (PhAc-[azaGly]P[3Pal][β3hF]-OH), which Activity [6] is on record?
**A.** The Activity was “inactive”.

**Q.** And the inhibition [1]?
**A.** Its inhibition is “Active”.

**Q.** What about the inhibition [3] of the same compound?
**A.** The inhibition was 37.5%.

**Q.** And the inhibition [7]?
**A.** The inhibition was “inactive”.

**Q.** What about the Activity [4] of the same compound?
**A.** Its Activity is “Active”.

**Q.** What does the source list for `O=C(O)C[C@H](Cc1ccccc1)NC(=O)[C@H](Cc1cccnc1)NC(=O)[C@@H]1CCCN1C(=O)N(Cc1ccccc1)NC(=O)Cc1ccccc1`?
**A.** Activity [6]: inactive; inhibition [1]: Active; inhibition [3]: 37.4%; inhibition [7]: inactive; Activity [4]: Active

**Q.** Which inhibition [1] does the source give for `NC(=O)NCCC[C@H](NC(=O)[C@H]1CC[C@H]2CC[C@@H](NC(=O)Cc3ccccc3)C(=O)N21)C(=O)N[C@H](CC(=O)O)Cc1ccccc1` here?
**A.** Its inhibition is “inactive”.

**Q.** For `C#CCN(NC(=O)Cc1ccccc1)C(=O)N1CCC[C@H]1C(=O)N[C@@H](Cc1cccnc1)C(=O)N[C@H](CC(=O)O)Cc1ccccc1`, which Activity [6] is on record?
**A.** Its Activity is “inactive”.

**Q.** What about the inhibition [1] of the same compound?
**A.** Its inhibition is “Active”.

**Q.** And the inhibition [3]?
**A.** The inhibition was 56.7%.

**Q.** What about the inhibition [7] of the same compound?
**A.** The inhibition was “inactive”.

**Q.** What about the Activity [4] of the same compound?
**A.** The Activity was “Active”.

**Q.** Which inhibition [1] does the source give for `CN(NC(=O)Cc1ccccc1)C(=O)N1CCC[C@H]1C(=O)N[C@@H](Cc1cccnc1)C(=O)N[C@H](CC(=O)O)Cc1ccccc1` here?
**A.** Its inhibition is “inactive”.

**Q.** For `CC[C@@H](C)[C@@H](N)C(=O)N[C@H](CC(C)C)C(=O)NCC(=O)N[C@H](Cc1cnc[nH]1)C(=O)N[C@H](CCCNC(=N)N)C(=O)N[C@H](CC(=O)O)C(=O)N[C@H](Cc1ccc(O)cc1)C(=O)N[C@H](CCCCN)C(=O)O` (H-[dI][dL]G[dH][dR][dD][dY][dK]-OH), which IC50 [8] is on record?
**A.** The IC50 was 0.34 µM.

**Q.** What about the inhibition at 100 µM [9] of the same compound?
**A.** Its inhibition at 100 µM is over 80%.

**Q.** For `CC[C@@H](C)[C@@H](N)C(=O)N[C@H](CC(C)C)C(=O)NCC(=O)N[C@H](Cc1cnc[nH]1)C(=O)N[C@H](CCCNC(N)=O)C(=O)N[C@H](CC(=O)O)C(=O)N[C@H](Cc1ccc(O)cc1)C(=O)N[C@H](CCCCN)C(=O)O` (H-[dI][dL]G[dH][dCit][dD][dY][dK]-OH), which IC50 [10] is on record?
**A.** Its IC50 is 0.013 µM.

**Q.** What about the inhibition [11] of the same compound?
**A.** Its inhibition is over 85%.

**Q.** What about the inhibition [12] of the same compound?
**A.** Its inhibition is over 85%.

**Q.** What about the inhibition [13] of the same compound?
**A.** Its inhibition is over 85%.

**Q.** And the IC50 [14]?
**A.** Its IC50 is 0.013 µM.

**Q.** What about the Time (Mus musculus [15]) of the same compound?
**A.** Its Time is 48 h.

**Q.** And the IC50 [16]?
**A.** The IC50 was 0.013 µM.
